Results reported in patent US8758816B2, “Compositions comprising azelastine and methods of use thereof” (priority 2004, dated 2014).

Tested on: patients with seasonal allergic rhinitis (SAR)
Experiment: MP 428 two-week randomized double-blind study: Total Nasal Symptom Score (TNSS), change from baseline
Format: in vivo, human
Design: key to Change from Baseline in AM TNSS, Mean / Change from Baseline in AM TNSS, LS Mean / Change from Baseline in AM TNSS, Median: TNSS sum of 4 symptoms each 0-3 (0=none, 3=severe); change from baseline
Conditions: for AUC of Change from Baseline in TNSS (AM and PM Combined), Mean / AUC of Change from Baseline in TNSS (AM and PM Combined), Median / AUC of Change from Baseline in TNSS (AM and PM Combined), LS Mean: Day 1 to Day 14; for AUC of Change from Baseline in TNSS (AM and PM Combined), LS Mean: ANCOVA
Method: A two-week, randomized, double-blind study, which evaluated the effects of the co-administration of ASTELIN® (azelastine hydrochloride (HCl)) and FLONASE® (fluticasone propionate) compared to either product alone in patients with seasonal allergic rhinitis (SAR) was conducted during the 2006 Texas mountain cedar season. After a 5-day placebo lead-in period, 151 patients with moderate-to-severe allergic rhinitis symptoms were randomized to either: (1) (49 total patients) ASTELIN® (azelastine hydrochloride (HCl)) plus placebo saline nasal spray 2 sprays per nostril, 15 minutes apart, twice daily (AM & PM); (2) (50 total patients) FLONASE® (fluticasone propionate) plus placebo saline nasal spray, 2 sprays per nostril, 15 minutes apart, once daily (AM) and two sessions of placebo saline nasal spray, 2 sprays per nostril, 15 minutes apart (PM); or (3) (52 total patients) the co-administration of ASTELIN® (azelastine hydrochloride (HCl)) 2 sprays per nostril plus FLONASE® (fluticasone propionate) 2 sprays per nostril (AM), 15 minutes apart, and ASTELIN® (azelastine hydrochloride (HCl)) 2 sprays per nostril plus placebo saline nasal spray, 15 minutes apart, (PM) for a 2-week double-blind treatment period.
The primary efficacy variable was the change from baseline in the Total Nasal Symptom Score (TNSS), which comprised sneezing, itchy nose, runny nose, and nasal congestion (individual symptoms scores were assigned a value between 0 and 3, where 0=no symptoms and 3=severe symptoms). This study was not statistically designed to assess the differences between ASTELIN® and FLONASE®.

[1] = Day 12, Per-Protocol Population
[2] = Day 13, Intent-to-Treat Population
[3] = Day 13, Per-Protocol Population
[4] = Day 14, Intent-to-Treat Population
[5] = Day 14, Per-Protocol Population
[6] = Overall (Day 2 to Day 14), Intent-to-Treat Population
[7] = Overall (Day 2 to Day 14), Per-Protocol Population

CCC(=O)O[C@]1(C(=O)SCF)[C@H](C)C[C@H]2[C@@H]3C[C@H](F)C4=CC(=O)C=C[C@]4(C)[C@@]3(F)[C@@H](O)C[C@@]21C [Fluticasone, fluticasone propionate]
Percent Change from Baseline in PM TNSS, Median (Day 12, Intent-to-Treat Population): −31.82%
Change from Baseline in AM and PM Combined TNSS, LS Mean (Day 12, Intent-to-Treat Population, ANCOVA model): −6.12
Change from Baseline in AM and PM Combined TNSS, LS Mean [1]: −6.16
Change from Baseline in AM and PM Combined TNSS, Mean [1]: −6.20
Change from Baseline in AM and PM Combined TNSS, Median [1]: −5.17
Percent Change from Baseline in AM and PM Combined TNSS, LS Mean [1]: −31.45%
Percent Change from Baseline in AM and PM Combined TNSS, Mean [1]: −31.50%
Percent Change from Baseline in AM and PM Combined TNSS, Median [1]: −27.78%
Change from Baseline in AM TNSS, LS Mean [2]: −3.38
Change from Baseline in AM TNSS, Mean [2]: −3.32
Change from Baseline in AM TNSS, Median [2]: −3.00
Change from Baseline in AM and PM Combined TNSS, Mean [2]: −6.83
Change from Baseline in AM and PM Combined TNSS, Median [2]: −6.20
Change from Baseline in PM TNSS, LS Mean [2]: −3.57
Change from Baseline in PM TNSS, Mean [2]: −3.51
Change from Baseline in PM TNSS, Median [2]: −3.00
Percent Change from Baseline in AM TNSS, LS Mean [2]: −34.62%
Percent Change from Baseline in AM TNSS, Mean [2]: −34.03%
Percent Change from Baseline in AM TNSS, Median [2]: −28.36%
Percent Change from Baseline in AM and PM Combined TNSS, LS Mean [2]: −35.63%
Percent Change from Baseline in AM and PM Combined TNSS, Mean [2]: −34.97%
Percent Change from Baseline in AM and PM Combined TNSS, Median [2]: −30.43%
Percent Change from Baseline in PM TNSS, LS Mean [2]: −36.56%
Percent Change from Baseline in PM TNSS, Mean [2]: −35.75%
Percent Change from Baseline in PM TNSS, Median [2]: −33.33%
Change from Baseline in AM and PM Combined TNSS, LS Mean (Day 13, Intent-to-Treat Population, ANCOVA model): −6.95
Change from Baseline in AM and PM Combined TNSS, LS Mean [3]: −7.03
Change from Baseline in AM and PM Combined TNSS, Mean [3]: −7.01
Change from Baseline in AM and PM Combined TNSS, Median [3]: −6.50
Percent Change from Baseline in AM and PM Combined TNSS, LS Mean [3]: −35.99%
Percent Change from Baseline in AM and PM Combined TNSS, Mean [3]: −35.73%
Percent Change from Baseline in AM and PM Combined TNSS, Median [3]: −30.43%
Change from Baseline in AM TNSS, LS Mean [4]: −3.33
Change from Baseline in AM TNSS, Mean [4]: −3.28
Change from Baseline in AM TNSS, Median [4]: −3.00
Change from Baseline in AM and PM Combined TNSS, Mean [4]: −6.91
Change from Baseline in AM and PM Combined TNSS, Median [4]: −5.85
Change from Baseline in PM TNSS, LS Mean [4]: −3.70
Change from Baseline in PM TNSS, Mean [4]: −3.63
Change from Baseline in PM TNSS, Median [4]: −3.00
Percent Change from Baseline in AM TNSS, LS Mean [4]: −33.54%
Percent Change from Baseline in AM TNSS, Mean [4]: −33.12%
Percent Change from Baseline in AM TNSS, Median [4]: −31.03%
Percent Change from Baseline in AM and PM Combined TNSS, LS Mean [4]: −35.62%
Percent Change from Baseline in AM and PM Combined TNSS, Mean [4]: −35.00%
Percent Change from Baseline in AM and PM Combined TNSS, Median [4]: −28.71%
Percent Change from Baseline in PM TNSS, LS Mean [4]: −37.70%
Percent Change from Baseline in PM TNSS, Mean [4]: −36.79%
Percent Change from Baseline in PM TNSS, Median [4]: −33.33%
Change from Baseline in AM and PM Combined TNSS, LS Mean (Day 14, Intent-to-Treat Population, ANCOVA model): −7.02
Change from Baseline in AM and PM Combined TNSS, LS Mean [5]: −7.15
Change from Baseline in AM and PM Combined TNSS, Mean [5]: −7.14
Change from Baseline in AM and PM Combined TNSS, Median [5]: −6.00
Percent Change from Baseline in AM and PM Combined TNSS, LS Mean [5]: −36.26%
Percent Change from Baseline in AM and PM Combined TNSS, Mean [5]: −36.03%
Percent Change from Baseline in AM and PM Combined TNSS, Median [5]: −34.31%
AUC of Change from Baseline in TNSS (AM and PM Combined), Mean (Intent-to-Treat Population): −64.53
AUC of Change from Baseline in TNSS (AM and PM Combined), Median (Intent-to-Treat Population): −51.13
AUC of Change from Baseline in TNSS (AM and PM Combined), LS Mean (Intent-to-Treat Population): −65.00
Change from Baseline in AM TNSS, LS Mean [6]: −2.55
Change from Baseline in AM TNSS, Mean [6]: −2.57
Change from Baseline in AM TNSS, Median [6]: −2.14
Change from Baseline in AM and PM Combined TNSS, Mean [6]: −5.06
Change from Baseline in AM and PM Combined TNSS, Median [6]: −3.91
Change from Baseline in PM TNSS, LS Mean [6]: −2.71
Change from Baseline in PM TNSS, Mean [6]: −2.43
Change from Baseline in PM TNSS, Median [6]: −1.86
Percent Change from Baseline in AM TNSS, LS Mean [6]: −26.39%
Percent Change from Baseline in AM TNSS, Mean [6]: −26.49%
Percent Change from Baseline in AM TNSS, Median [6]: −23.89%
Percent Change from Baseline in AM and PM Combined TNSS, LS Mean [6]: −27.13%
Percent Change from Baseline in AM and PM Combined TNSS, Mean [6]: −26.12%
Percent Change from Baseline in AM and PM Combined TNSS, Median [6]: −21.93%
Percent Change from Baseline in PM TNSS, LS Mean [6]: −27.75%
Percent Change from Baseline in PM TNSS, Mean [6]: −24.98%
Percent Change from Baseline in PM TNSS, Median [6]: −20.34%
Change from Baseline in AM and PM Combined TNSS, LS Mean (Overall (Day 2 to Day 14), Intent-to-Treat Population, ANCOVA model): −5.24
Change from Baseline in AM and PM Combined TNSS, LS Mean [7]: −5.24
Change from Baseline in AM and PM Combined TNSS, Mean [7]: −5.14
Change from Baseline in AM and PM Combined TNSS, Median [7]: −3.91
Percent Change from Baseline in AM and PM Combined TNSS, LS Mean [7]: −27.12%
Percent Change from Baseline in AM and PM Combined TNSS, Mean [7]: −26.46%
Percent Change from Baseline in AM and PM Combined TNSS, Median [7]: −21.93%
AUC of Change from Baseline in TNSS (AM and PM Combined), Mean (Per-Protocol Population): −65.66
AUC of Change from Baseline in TNSS (AM and PM Combined), Median (Per-Protocol Population): −51.13
AUC of Change from Baseline in TNSS (AM and PM Combined), LS Mean (Per-Protocol Population): −65.38
